Test results from US20260028365A1 (BIOGEN MA INC., priority 2022, published 2026).
Where two headings read alike, the source gives them in different places.

What was measured:
JH2 domain of human Tyk2 = JH2 domain of human Tyk2 (Homo sapiens (Human), UniProt P29597); assay: JH2 Biochemical Assay (TR-FRET probe displacement); format: binding
Tyk2 = Tyk2 (Homo sapiens (Human), UniProt P29597); assay: pSTAT4 Cell Assay (MSD, NK92 cells); format: cell-based
[1] = TR-FRET probe displacement, JH2 domain
[2] = JH2 domain of human Tyk2, TR-FRET probe displacement
[3] = TR-FRET probe displacement, JH2 domain of human Tyk2

Tyk2, sequence (P29597 whole entry, the tested form may be a part): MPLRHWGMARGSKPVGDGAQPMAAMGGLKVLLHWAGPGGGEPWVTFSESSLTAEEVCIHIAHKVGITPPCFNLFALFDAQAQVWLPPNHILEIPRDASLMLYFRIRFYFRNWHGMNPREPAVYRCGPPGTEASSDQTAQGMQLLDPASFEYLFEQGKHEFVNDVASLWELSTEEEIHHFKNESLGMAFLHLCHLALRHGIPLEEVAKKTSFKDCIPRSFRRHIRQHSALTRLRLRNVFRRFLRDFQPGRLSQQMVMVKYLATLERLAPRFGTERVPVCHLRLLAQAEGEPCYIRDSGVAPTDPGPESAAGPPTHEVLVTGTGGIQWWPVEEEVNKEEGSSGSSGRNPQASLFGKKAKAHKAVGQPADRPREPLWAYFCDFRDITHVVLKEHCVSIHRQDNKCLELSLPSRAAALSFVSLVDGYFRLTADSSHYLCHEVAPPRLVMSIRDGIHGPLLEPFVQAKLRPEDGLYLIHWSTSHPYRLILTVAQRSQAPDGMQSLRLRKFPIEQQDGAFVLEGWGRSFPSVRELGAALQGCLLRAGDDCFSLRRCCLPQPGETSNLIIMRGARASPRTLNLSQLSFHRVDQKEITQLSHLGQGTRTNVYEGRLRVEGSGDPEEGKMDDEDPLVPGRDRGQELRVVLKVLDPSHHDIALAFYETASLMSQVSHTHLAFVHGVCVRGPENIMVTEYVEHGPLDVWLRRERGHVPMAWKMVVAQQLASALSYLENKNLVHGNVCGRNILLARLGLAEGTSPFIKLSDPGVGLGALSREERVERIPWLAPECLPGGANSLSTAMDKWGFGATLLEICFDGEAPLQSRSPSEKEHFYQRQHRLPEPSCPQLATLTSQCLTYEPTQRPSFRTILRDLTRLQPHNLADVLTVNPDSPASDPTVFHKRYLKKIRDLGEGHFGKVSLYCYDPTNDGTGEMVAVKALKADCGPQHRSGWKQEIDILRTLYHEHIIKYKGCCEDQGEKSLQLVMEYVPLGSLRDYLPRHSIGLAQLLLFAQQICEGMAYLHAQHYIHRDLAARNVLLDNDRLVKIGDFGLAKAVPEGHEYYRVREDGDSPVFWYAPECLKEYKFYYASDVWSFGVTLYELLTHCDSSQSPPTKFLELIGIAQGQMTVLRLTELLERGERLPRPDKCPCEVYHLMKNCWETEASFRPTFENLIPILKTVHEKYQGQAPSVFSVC
JH2 domain of human Tyk2, sequence (P29597 575-876): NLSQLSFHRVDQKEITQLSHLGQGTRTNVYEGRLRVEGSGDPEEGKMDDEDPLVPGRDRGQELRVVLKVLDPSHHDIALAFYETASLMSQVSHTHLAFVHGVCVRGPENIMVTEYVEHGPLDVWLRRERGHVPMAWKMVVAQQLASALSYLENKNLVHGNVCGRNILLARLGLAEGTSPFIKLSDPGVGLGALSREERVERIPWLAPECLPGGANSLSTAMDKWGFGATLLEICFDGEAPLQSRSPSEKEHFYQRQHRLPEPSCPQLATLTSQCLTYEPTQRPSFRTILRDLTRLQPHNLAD

SMILES | IC50 (JH2 domain of human Tyk2; [1]) [nM] | IC50 (Tyk2) [nM] | IC50 (JH2 domain of human Tyk2; [2]) [nM] | IC50 (Tyk2; MSD) [nM] | IC50 (JH2 domain of human Tyk2; [3]) [nM]
CC(=O)Nc1cc(Nc2cc(C)nc(C(C)(F)F)n2)c(-c2cc(C(C)(C)N(C)C)n(C)n2)cn1 [Example 802, N-(4-((2-(1,1-difluoroethyl)-6-methylpyrimidin-4-yl)amino)-5-(5-(2-(dimethylamino)propan-2-yl)-1-methyl-1H-pyrazol-3-yl)pyridin-2-yl)acetamide] | ≤ 10 | ≤ 10 | – | – | –
COc1cc(-c2cnc(NC(C)=O)cc2Nc2ccnc(C(C)(F)F)n2)ncc1F [Example 699, N-(4′-((2-(1,1-difluoroethyl)pyrimidin-4-yl)amino)-5-fluorO4-methoxy-[2,3′-bipyridin]-6′-yl)acetamide] | – | – | 10 to 100 | ≥ 1000 | –
CC(=O)Nc1cc(Nc2cccc(C(C)(F)F)n2)c(-c2cn(C)c(=O)cn2)cn1 [Example 159, N-(4-((6-(1,1-difluoroethyl)pyridin-2-yl)amino)-5-(4-methyl-5-oxo-4,5-dihydropyrazin-2-yl)pyridin-2-yl)acetamide] | – | – | – | 10 to 100 | ≤ 10
CC(=O)Nc1cc(Nc2cc(C)nc(C(C)(F)F)n2)c(-n2ccc(C)n2)cn1 [Example 597, N-(4-((2-(1,1-difluoroethyl)-6-methylpyrimidin-4-yl)amino)-5-(3-methyl-1H-pyrazol-1-yl)pyridin-2-yl)acetamide] | – | – | ≤ 10 | 10 to 100 | –
CC(=O)Nc1cc(Nc2cc(C)nc(C(C)(C)F)n2)c(-c2ccn3nccc3n2)cn1 [Example 538, N-(4-((2-(2-fluoropropan-2-yl)-6-methylpyrimidin-4-yl)amino)-5-(pyrazolo[1,5-a]pyrimidin-5-yl)pyridin-2-yl)acetamide] | – | – | ≤ 10 | ≤ 10 | –
COc1cnc(NC(C)=O)cc1Nc1cc(-c2cn[nH]c2)nc(C(C)(F)F)n1 [Example 416, N-(4-((2-(1,1-difluoroethyl)-6-(1H-pyrazol-4-yl)pyrimidin-4-yl)amino)-5-methoxypyridin-2-yl)acetamide] | – | – | ≤ 10 | 100 to 1000 | –
CO[C@H]1C[C@@H](Oc2cc(Nc3cc(NC(C)=O)ncc3-c3ccn(C)n3)nc(C(C)(F)F)c2)C1 [Example 211, N-(4-((6-(1,1-difluoroethyl)-4-((1s,3s)-3-methoxycyclobutoxy)pyridin-2-yl)amino)-5-(1-methyl-1H-pyrazol-3-yl)pyridin-2-yl)acetamide] | – | – | – | ≤ 10 | ≤ 10
CC(=O)Nc1cc(Nc2cncc(C(C)(C)F)c2)c(-c2ccc(C(C)(C)O)cn2)cn1 [Example 722, N-(4′-((5-(2-fluoropropan-2-yl)pyridin-3-yl)amino)-5-(2-hydroxypropan-2-yl)-[2,3′-bipyridin]-6′-yl)acetamide] | – | – | ≤ 10 | ≤ 10 | –
CCOc1cnc(NC(C)=O)cc1Nc1cc(C)nc(C(F)(F)CC)n1 [Example 516, N-(4-((2-(1,1-difluoropropyl)-6-methylpyrimidin-4-yl)amino)-5-ethoxypyridin-2-yl)acetamide] | – | – | ≤ 10 | 100 to 1000 | –
CC(=O)Nc1cc(Nc2cc(C)nc(C(C)(F)F)n2)c(-c2ncc(C(F)F)cn2)cn1 [Example 670, N-(4-((2-(1,1-difluoroethyl)-6-methylpyrimidin-4-yl)amino)-5-(5-(difluoromethyl)pyrimidin-2-yl)pyridin-2-yl)acetamide] | – | – | ≤ 10 | 10 to 100 | –
COCCc1cnn(-c2cnc(NC(C)=O)cc2Nc2cc(C)nc(C(C)(F)F)n2)c1 [Example 764, N-(4-((2-(1,1-difluoroethyl)-6-methylpyrimidin-4-yl)amino)-5-(4-(2-methoxyethyl)-1H-pyrazol-1-yl)pyridin-2-yl)acetamide] | ≤ 10 | 10 to 100 | – | – | –
CCOc1cnc(NC(C)=O)cc1Nc1ccc(-c2ccn(C)n2)c(OC)n1 [Example 491, N-(5-ethoxy-4-((6-methoxy-5-(1-methyl-1H-pyrazol-3-yl)pyridin-2-yl)amino)pyridin-2-yl)acetamide] | – | – | 10 to 100 | ≥ 1000 | –
CCc1cc(Nc2cc(NC(C)=O)ncc2-c2cnc(C#N)cn2)nc(C(C)(F)F)n1 [Example 864, N-(5-(5-cyanopyrazin-2-yl)-4-((2-(1,1-difluoroethyl)-6-ethylpyrimidin-4-yl)amino)pyridin-2-yl)acetamide] | ≤ 10 | 10 to 100 | – | – | –
COc1cc(-c2cnc(NC(C)=O)cc2Nc2ccnc(C(C)(F)F)n2)nc(OC)n1 [Example 687, N-(4-((2-(1,1-difluoroethyl)pyrimidin-4-yl)amino)-5-(2,6-dimethoxypyrimidin-4-yl)pyridin-2-yl)acetamide] | – | – | ≤ 10 | 10 to 100 | –
CCc1cc(Nc2cc(NC(C)=O)ncc2OCCN2CCN(C)CC2)nc(C(C)(F)F)n1 [Example 71, N-(4-((2-(1,1-difluoroethyl)-6-ethylpyrimidin-4-yl)amino)-5-(2-(4-methylpiperazin-1-yl)ethoxy)pyridin-2-yl)acetamide] | – | – | – | ≤ 10 | ≤ 10
COC1CCN(Cc2ccc(-c3cnc(NC(C)=O)cc3Nc3ccnc(C(C)(F)F)n3)nc2)C1 (centres unmarked) [Example 881, N-(4′-((2-(1,1-difluoroethyl)pyrimidin-4-yl)amino)-5-((3-methoxypyrrolidin-1-yl)methyl)-[2,3′-bipyridin]-6′-yl)acetamide] | ≤ 10 | ≤ 10 | – | – | –

SMILES | IC50 (JH2 domain of human Tyk2; [1]) [nM] | IC50 (Tyk2) [nM] | IC50 (JH2 domain of human Tyk2; [2]) [nM] | IC50 (Tyk2; MSD) [nM] | IC50 (JH2 domain of human Tyk2; [3]) [nM]
CC(=O)Nc1cc(Nc2ccnc(C(C)(F)F)n2)c(-c2ncccn2)cn1 [Example 685, N-(4-((2-(1,1-difluoroethyl)pyrimidin-4-yl)amino)-5-(pyrimidin-2-yl)pyridin-2-yl)acetamide] | – | – | ≤ 10 | 10 to 100 | –
COc1cncc(-c2cnc(NC(C)=O)cc2Nc2ccnc(C(C)(F)F)n2)n1 [Example 273, N-(4-((2-(1,1-difluoroethyl)pyrimidin-4-yl)amino)-5-(6-methoxypyrazin-2-yl)pyridin-2-yl)acetamide] | – | – | – | 100 to 1000 | 10 to 100
CC(=O)Nc1cc(Nc2cc(C)nc(C(C)(F)F)n2)c(-c2ncn(C)n2)cn1 [Example 157, N-(4-((2-(1,1-difluoroethyl)-6-methylpyrimidin-4-yl)amino)-5-(1-methyl-1H-1,2,4-triazol-3-yl)pyridin-2-yl)acetamide] | – | – | – | 100 to 1000 | ≤ 10
COc1cncc(-c2cc(Nc3cc(NC(C)=O)ncc3OC)nc(C(C)(F)F)n2)c1 [Example 296, N-(4-((2-(1,1-difluoroethyl)-6-(5-methoxypyridin-3-yl)pyrimidin-4-yl)amino)-5-methoxypyridin-2-yl)acetamide] | – | – | – | 100 to 1000 | 10 to 100
CCOc1cnc(NC(C)=O)cc1Nc1cc(OC2CC(C)(O)C2)nc(C(C)(F)F)n1 (centres unmarked) [Example 53, N-(4-((2-(1,1-difluoroethyl)-6-(3-hydroxy-3-methylcyclobutoxy)pyrimidin-4-yl)amino)-5-ethoxypyridin-2-yl)acetamide] | – | – | – | 10 to 100 | ≤ 10
CC(=O)Nc1cc(Nc2cc(OC3CC3)nc(C(C)(F)F)n2)c(F)cn1 [Example 818, N-(4-((6-cyclopropoxy-2-(1,1-difluoroethyl)pyrimidin-4-yl)amino)-5-fluoropyridin-2-yl)acetamide] | ≤ 10 | 100 to 1000 | – | – | –
COCc1ccc(-c2cnc(NC(C)=O)cc2Nc2cc(C)nc(C3CCOC3)n2)nc1 (centres unmarked) [Example 568, N-(5-(methoxymethyl)-4′-((6-methyl-2-(tetrahydrofuran-3-yl)pyrimidin-4-yl)amino)-[2,3′-bipyridin]-6′-yl)acetamide] | – | – | ≤ 10 | ≤ 10 | –
COc1cnc(NC(C)=O)cc1Nc1cc(-c2ccc3nc(C)cn3n2)nc(C(C)(F)F)n1 [Example 399, N-(4-((2-(1,1-difluoroethyl)-6-(2-methylimidazo[1,2-b]pyridazin-6-yl)pyrimidin-4-yl)amino)-5-methoxypyridin-2-yl)acetamide] | – | – | ≤ 10 | 10 to 100 | –
CC(=O)Nc1cc(Nc2cc(C(C)C)nc(C(C)(F)F)n2)c(O[C@H]2C[C@H](F)C2)cn1 [Example 410, N-(4-((2-(1,1-difluoroethyl)-6-isopropylpyrimidin-4-yl)amino)-5-((1r,3r)-3-fluorocyclobutoxy)pyridin-2-yl)acetamide] | – | – | ≤ 10 | ≤ 10 | –
CC(=O)Nc1cc(Nc2cc(C)nc(C(C)(F)F)n2)c(-c2csc(N3CCN(C)CC3)n2)cn1 [Example 771, N-(4-((2-(1,1-difluoroethyl)-6-methylpyrimidin-4-yl)amino)-5-(2-(4-methylpiperazin-1-yl)thiazol-4-yl)pyridin-2-yl)acetamide] | ≤ 10 | ≤ 10 | – | – | –
CC(=O)Nc1cc(Nc2cc(C)nc(C(C)(C)F)n2)c(-c2ncc(F)cn2)cn1 [Example 723, N-(4-((2-(2-fluoropropan-2-yl)-6-methylpyrimidin-4-yl)amino)-5-(5-fluoropyrimidin-2-yl)pyridin-2-yl)acetamide] | – | – | ≤ 10 | 10 to 100 | –
CC(=O)Nc1cc(Nc2cc(C(C)C)nc(C(C)(F)F)n2)c(F)cn1 [Example 817, N-(4-((2-(1,1-difluoroethyl)-6-isopropylpyrimidin-4-yl)amino)-5-fluoropyridin-2-yl)acetamide] | 10 to 100 | ≥ 1000 | – | – | –
CC(=O)Nc1cc(Nc2ccnc(C(C)(F)F)n2)c(-c2cncc(C#N)n2)cn1 [Example 766, N-(5-(6-cyanopyrazin-2-yl)-4-((2-(1,1-difluoroethyl)pyrimidin-4-yl)amino)pyridin-2-yl)acetamide] | ≤ 10 | 100 to 1000 | – | – | –
CC(=O)Nc1cc(Nc2ccnc(C(C)(F)F)n2)c(-c2ccn3nccc3n2)cn1 [Example 539, N-(4-((2-(1,1-difluoroethyl)pyrimidin-4-yl)amino)-5-(pyrazolo[1,5-a]pyrimidin-5-yl)pyridin-2-yl)acetamide] | – | – | ≤ 10 | ≤ 10 | –
CC(=O)Nc1cc(Nc2cc(C)nc(C(C)(F)F)n2)c(OC[C@]23CC[C@@H](CC2)O3)cn1 [Example 423, N-(5-(((1r,4r)-7-oxabicyclo[2.2.1]heptan-1-yl)methoxy)-4-((2-(1,1-difluoroethyl)-6-methylpyrimidin-4-yl)amino)pyridin-2-yl)acetamide] | – | – | ≤ 10 | 10 to 100 | –
